Consider one molecule from PMC8301025 (Biology, 2021).

For this experiment, the system named is T1, CLas GMPS.
T1 construct: gene guaA
The settings on record: read-out: (NH4)2SO4, Km mM; saturating XMP and ATP, 20 mM MgCl2, pH 8.5; salt printed as (NH4)2SO4 in table, NH4Cl in methods; text prints 10.9 ± 1.9 mM.

As for `N` [NH4+], the Michaelis constant (Km) amounted to 10.9 ± 1.3 mM.

For orientation: Km means the concentration of substrate that gives half-maximal velocity.
